Data on 22 compounds can be found in US8691859B2 (priority 2005, dated 2014).

Values after ≈ are worked out from the molar mass of the structure shown.

Assay [1] deals with B. anthracis GFP sterne spores. In words: microbe, parasite or virus in culture. In kind it is cell-based. The conditions noted are these: for MIC: Bacillus anthracis, read-out: MIC B. anthracis spores.
The target in the next assay is anthrax lethal factor (Bacillus anthracis, UniProt P15917). The assay is classed as biochemical.
anthrax lethal factor, sequence (P15917 34-809 limits assumed): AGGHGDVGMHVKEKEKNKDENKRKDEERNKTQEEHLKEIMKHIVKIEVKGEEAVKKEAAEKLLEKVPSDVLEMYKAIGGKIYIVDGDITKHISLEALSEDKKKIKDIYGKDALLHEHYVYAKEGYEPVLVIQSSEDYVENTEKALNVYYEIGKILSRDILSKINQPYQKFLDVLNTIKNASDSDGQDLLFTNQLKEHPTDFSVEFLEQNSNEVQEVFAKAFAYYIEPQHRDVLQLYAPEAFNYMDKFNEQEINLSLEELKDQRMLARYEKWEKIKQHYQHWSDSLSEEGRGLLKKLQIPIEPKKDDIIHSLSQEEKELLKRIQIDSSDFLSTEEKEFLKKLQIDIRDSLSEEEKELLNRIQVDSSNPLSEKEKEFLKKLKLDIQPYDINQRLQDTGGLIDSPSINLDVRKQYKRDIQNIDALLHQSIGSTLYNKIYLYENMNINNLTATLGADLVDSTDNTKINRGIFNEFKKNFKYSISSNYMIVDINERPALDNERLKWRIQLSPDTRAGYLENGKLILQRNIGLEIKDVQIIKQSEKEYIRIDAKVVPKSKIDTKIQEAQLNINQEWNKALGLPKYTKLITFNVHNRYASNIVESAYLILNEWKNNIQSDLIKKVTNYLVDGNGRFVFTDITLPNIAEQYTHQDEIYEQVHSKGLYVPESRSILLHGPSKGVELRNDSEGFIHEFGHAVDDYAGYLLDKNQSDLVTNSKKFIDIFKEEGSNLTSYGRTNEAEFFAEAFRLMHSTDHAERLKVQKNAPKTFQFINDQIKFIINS
In assay [2] the test system is B. anthracis GFP sterne vegetative cells. In words: microbe, parasite or virus in culture. The assay is classed as cell-based. The conditions noted are these: for MIC: Bacillus anthracis, read-out: MIC B. anthracis vegetative cells.

Regarding `Cc1c(/C=C/c2oc3ccc(C(=N)N)cc3c2C)oc2ccc(C(=N)N)cc12` [NSC 266474, 2-[(E)-2-(5-carbamimidoyl-3-methyl-benzofuran-2-yl)ethenyl]-3-methyl-benzofuran-5-carboximidamide], the MIC in assay [1] and in assay [2] was above 17.8 µg/mL throughout. On anthrax lethal factor, the “inhibition of the protease activity of anthrax lethal factor” value (“inhibition” below) is recorded as “inhibit”.

In the case of `C/C(=C\c1cc2cc(C(=N)N)ccc2o1)c1cc2cc(C(=N)N)ccc2o1` [NSC 266476, 2-[(E)-1-(5-carbamimidoylbenzofuran-2-yl)prop-1-en-2-yl]benzofuran-5-carboximidamide], the MIC in assay [1] and in assay [2] was above 17.2 µg/mL throughout. For the same compound, the “inhibition” value against anthrax lethal factor is listed as “inhibit”.

In the case of `N=C(N)c1ccc2[nH]c(/C=C/c3cc4cc(C(=N)N)ccc4o3)cc2c1` [NSC 290107, 2-[(E)-2-(5-carbamimidoylbenzofuran-2-yl)ethenyl]-1H-indole-5-carboximidamide], the MIC in assay [1] is 8.32 µg/mL (≈ 24.2 µM); in assay [2], above 16.6 µg/mL. Besides, the “inhibition” value on anthrax lethal factor is given as “inhibit”.

In the case of `C(=C\c1cc2cc(C3=NCCN3)ccc2o1)/c1cc2cc(C3=NCCN3)ccc2[nH]1` [NSC 290108, 5-(4,5-dihydro-1H-imidazol-2-yl)-2-[(E)-2-[5-(4,5-dihydro-1H-imidazol-2-yl)benzofuran-2-yl]ethenyl]-1H-indole], the MIC in assay [1] is 18.5 µg/mL (≈ 46.7 µM); in assay [2] it was above 18.5 µg/mL. In addition, the “inhibition” value against anthrax lethal factor is reported as “inhibit”.

As to `N=C(N)c1ccc2oc(CCc3cc4ccc(C(=N)N)cc4[nH]3)cc2c1` [NSC 290109, 2-[2-(5-carbamimidoylbenzofuran-2-yl)ethyl]-1H-indole-6-carboximidamide], the MIC in assay [1] and in assay [2] was 8.36 µg/mL (≈ 24.2 µM) each time. Further, on anthrax lethal factor, the “inhibition” value was “inhibit”.

Turning to `N=C(N)c1ccc2cc(/C=C/c3cc4ccc(C(=N)N)cc4o3)[nH]c2c1` [NSC 294200, 2-[(E)-2-(6-carbamimidoylbenzofuran-2-yl)ethenyl]-1H-indole-6-carboximidamide], the figures for the MIC in assay [1] and in assay [2] were 2.08 µg/mL (≈ 6.06 µM) and 4.16 µg/mL (≈ 12.1 µM), respectively. On anthrax lethal factor, the “inhibition” value is listed as “inhibit”.

Consider `C(=C\c1cc2ccc(C3=NCCN3)cc2o1)/c1cc2ccc(C3=NCCN3)cc2[nH]1` [NSC 294201, 6-(4,5-dihydro-1H-imidazol-2-yl)-2-[(E)-2-[6-(4,5-dihydro-1H-imidazol-2-yl)benzofuran-2-yl]ethenyl]-1H-indole], for which the MIC is 4.68 µg/mL (≈ 11.8 µM) in assay [1] and 18.7 µg/mL (≈ 47.3 µM) in assay [2]. In addition, the “inhibition” value at anthrax lethal factor was “inhibit”.

With `N=C(N)c1ccc2[nH]c(/C=C/c3cc4ccc(C(=N)N)cc4o3)cc2c1` [NSC 294203, 2-[(E)-2-(6-carbamimidoylbenzofuran-2-yl)ethenyl]-1H-indole-5-carboximidamide], the MIC in assay [1] was 16.6 µg/mL (≈ 48.5 µM); in assay [2], above 16.6 µg/mL. Also, the “inhibition” value at anthrax lethal factor is recorded as “inhibit”.

Turning to `C(=C\c1cc2ccc(C3=NCCN3)cc2o1)/c1cc2cc(C3=NCCN3)ccc2[nH]1` [NSC 294204, 5-(4,5-dihydro-1H-imidazol-2-yl)-2-[(E)-2-[6-(4,5-dihydro-1H-imidazol-2-yl)benzofuran-2-yl]ethenyl]-1H-indole], the MIC in assay [1] was 18.7 µg/mL (≈ 47.3 µM); in assay [2], above 18.7 µg/mL. In addition, at anthrax lethal factor, the “inhibition” value is listed as “inhibit”.

`O=C(Nc1ccc(C2=NCCN2)cc1)c1cc2ccc(C3=NCCN3)cc2[nH]1` [NSC 294206, 6-(4,5-dihydro-1H-imidazol-2-yl)-N-[4-(4,5-dihydro-1H-imidazol-2-yl)phenyl]-1H-indole-2-carboxamide]: the values for the MIC in assay [1] and in assay [2] were 8.9 µg/mL (≈ 23.9 µM) and 17.8 µg/mL (≈ 47.8 µM), respectively. The “inhibition” value on anthrax lethal factor is “inhibit”.

For `N=C(N)c1ccc2oc(/C=C/C=C/c3cc4cc(C(=N)N)ccc4o3)cc2c1` [NSC 300511, 2-[(1E,3E)-4-(5-carbamimidoylbenzofuran-2-yl)buta-1,3-dienyl]benzofuran-5-carboximidamide], the MIC in assay [1] amounted to 2.21 µg/mL (≈ 5.98 µM); in assay [2], 17.7 µg/mL (≈ 47.8 µM). The “inhibition” value at anthrax lethal factor was “inhibit”.

On to `C(/C=C/c1cc2cc(C3=NCCN3)ccc2o1)=C\c1cc2cc(C3=NCCN3)ccc2o1` [NSC 308571, 2-[2-[(1E,3E)-4-[5-(4,5-dihydro-1H-imidazol-2-yl)benzofuran-2-yl]buta-1,3-dienyl]benzofuran-5-yl]-4,5-dihydro-1H-imidazole], for which the MIC came to 9.9 µg/mL (≈ 23.4 µM) in assay [1] and 19.8 µg/mL (≈ 46.9 µM) in assay [2]. For the same compound, the “inhibition” value at anthrax lethal factor is “inhibit”.

As to `N=C(N)c1ccc(/C=C/C=C/c2cc3cc(C(=N)N)ccc3o2)cc1` [NSC 308572, 2-[(1E,3E)-4-(4-carbamimidoylphenyl)buta-1,3-dienyl]benzofuran-5-carboximidamide], the MIC in assay [1] was 8.06 µg/mL (≈ 24.4 µM); in assay [2], 16.1 µg/mL (≈ 48.8 µM). In addition, at anthrax lethal factor, the “inhibition” value is listed as “inhibit”.

In the case of `N=C(N)c1ccc(/C=C/c2cc3cc(C(=N)N)ccc3[nH]2)cc1` [NSC 317884, 2-[(E)-2-(4-carbamimidoylphenyl)ethenyl]-1H-indole-5-carboximidamide], the MIC is 15 µg/mL (≈ 49.6 µM) in assay [1] and above 15 µg/mL in assay [2]. Moreover, the “inhibition” value against anthrax lethal factor is “inhibit”.

In the case of `C(=C\c1cc2cc(C3=NCCN3)ccc2[nH]1)/c1ccc(C2=NCCN2)cc1` [NSC 317885, 5-(4,5-dihydro-1H-imidazol-2-yl)-2-[(E)-2-[4-(4,5-dihydro-1H-imidazol-2-yl)phenyl]ethenyl]-1H-indole], the MIC in assay [1] and in assay [2] was above 17.1 µg/mL throughout. On anthrax lethal factor, the “inhibition” value is on record as “inhibit”.

Consider `N=C(N)c1ccc(/C=C/c2cc3ccc(C(=N)N)cc3[nH]2)cc1` [NSC 317886, 2-[(E)-2-(4-carbamimidoylphenyl)ethenyl]-1H-indole-6-carboximidamide], for which the MIC in assay [1] came to 7.52 µg/mL (≈ 24.8 µM); in assay [2], 15 µg/mL (≈ 49.5 µM). Also, the “inhibition” value against anthrax lethal factor is reported as “inhibit”.

For `C(=C\c1cc2ccc(C3=NCCN3)cc2[nH]1)/c1ccc(C2=NCCN2)cc1` [NSC 317887, 6-(4,5-dihydro-1H-imidazol-2-yl)-2-[(E)-2-[4-(4,5-dihydro-1H-imidazol-2-yl)phenyl]ethenyl]-1H-indole], the MIC is 8.56 µg/mL (≈ 24.1 µM) in assay [1] and above 17.1 µg/mL in assay [2]. In addition, the “inhibition” value on anthrax lethal factor is “inhibit”.

Take `C(=C\c1cc2ccc(C3=NCCN3)cc2[nH]1)/c1ccc2cc(C3=NCCN3)[nH]c2c1` [NSC 341907, 6-(4,5-dihydro-1H-imidazol-2-yl)-2-[(E)-2-[2-(4,5-dihydro-1H-imidazol-2-yl)-1H-indol-6-yl]ethenyl]-1H-indole]: the MIC in assay [1] turned out to be 9.34 µg/mL (≈ 23.7 µM); in assay [2] it was 18.7 µg/mL (≈ 47.4 µM). Besides, on anthrax lethal factor, the “inhibition” value is “inhibit”.

With `c1cc(-c2[nH]c3cc(C4=NCCN4)ccc3c2-c2cc3ccc(C4=NCCN4)cc3[nH]2)ccc1C1=NCCN1` [NSC 341911, 6-(4,5-dihydro-1H-imidazol-2-yl)-3-[6-(4,5-dihydro-1H-imidazol-2-yl)-1H-indol-2-yl]-2-[4-(4,5-dihydro-1H-imidazol-2-yl)phenyl]-1H-indole], the “MIC B. anthracis spores” value in assay [1] worked out at 24.88 µg/mL (≈ 48.5 µM). Moreover, the “inhibition” value at anthrax lethal factor is reported as “inhibit”. The MIC in assay [2] worked out at 24.9 µg/mL (≈ 48.5 µM).

With `c1cc(-c2[nH]c3cc(C4=NCCN4)ccc3c2-c2cc3ccc(C4=NCCN4)cc3[nH]2)ccc1C1=NCCN1` [NSC 352341, 6-(4,5-dihydro-1H-imidazol-2-yl)-3-[6-(4,5-dihydro-1H-imidazol-2-yl)-1H-indol-2-yl]-2-[4-(4,5-dihydro-1H-imidazol-2-yl)phenyl]-1H-indole], the “MIC B. anthracis spores” value in assay [1] is 6.82 µg/mL (≈ 13.3 µM). Besides, in assay [2], the “MIC B. anthracis vegetative cells” value was 13.64 µg/mL (≈ 26.6 µM).

For `c1cc(-c2nc3ccc(-c4nc5ccc(C6=NCCN6)cc5[nH]4)cc3[nH]2)ccc1C1=NCCN1` [NSC 369721, 5-(4,5-dihydro-1H-imidazol-2-yl)-2-[2-[4-(4,5-dihydro-1H-imidazol-2-yl)phenyl]-3H-benzoimidazol-5-yl]-3H-benzoimidazole], the MIC was found to be 1.39 µg/mL (≈ 3.11 µM) in assay [1] and 22.3 µg/mL (≈ 49.9 µM) in assay [2].

As for “Glycine, N-acetyl-, compound with 2,2′-(1,{2-ethenediyl)bis[5-benzofurancarboximidamide]} (2:1) [NSC 341082]”, the “MIC B. anthracis spores” value in assay [1] is above 23.16 µg/mL. Besides, in assay [2], the “MIC B. anthracis vegetative cells” value is above 23.16 µg/mL.
